Data reported in US5591849A, “Spiro[naphthalene-2(1H),2'-piperidine] and their use” (Takeda Chemical Industries, Ltd., priority 1994, dated 1997).
Structures can show the parent of a compound that is named as a salt.

Experiments:
45Ca2+ uptake = 45Ca2+ uptake inhibition experiments (veratrine-stimulated, rat cerebral cortex crude synaptosome fraction); type: biochemical; conditions: stimulated by 30 μM veratrine, rat cerebral cortex synaptosomes
Description: ^45 Ca^2+ uptake inhibition experiments
Rat cerebral cortex was homogenized with a 10-fold volume of 0.32M sucrose solution to yield a crude synaptosome fraction (100×g for 10 minutes, 12,000×g for 20 minutes). This fraction was homogenized in Tris buffer [neutralized with 132 mM sodium chloride, 5 mM potassium chloride, 1.3 mM magnesium chloride, 1.2 mM sodium dihydrogen phosphate, 1.2 mM calcium chloride, 10 mM glucose and 20 mM Tris base, saturated with a mixed gas (95% oxygen and 5% carbon dioxide)]. To 900 μl of this suspension, a DMSO solution (10 μl ) of the test drug was added, followed by 10 minutes of incubation at 37° C. 100 μl (final concentration 30μM) of a veratrine solution (containing 0.18 μci ^45 Ca^2+) was then added, followed by 10 minutes of incubation at 37° C. Subsequently, the reaction mixture was quenched by the addition of 4 ml of an ice cooled EGTA solution (120 mM sodium chloride, 5 mM potassium chloride, 5 mM EGTA, pH 7.5), and subjected to aspiration filtration through a GF/B filter; the filter was washed with two 4 ml portions of a washing solution (132 mM sodium chloride, 5 mM potassium chloride, 1.3 mM magnesium chloride, 1.2 mM calcium chloride, 20 mM Tris base, pH 7.5). The radioactivity on the filter was measured by the liquid scintillation method.
^45 Ca^2+ uptake suppression rates were calculated as follows: [formula]
^45 Ca^2+ uptake stimulated by 30 μM veratrine for 10 minutes in the presence of test drug
B: ^45 Ca^2+ uptake in the absence of veratrine and in the presence of test drug
C: ^45 Ca^2 + uptake stimulated by 30 μM veratrine for 10 minutes in the absence of test drug
D: ^45 Ca^2 + uptake in the absence of veratrine and test drug

[1] = target: T1, Monoamine oxidase B (MAO-B) (Rattus norvegicus, UniProt P19643); assay: Monoamine oxidase B (MAO-B) inhibitory activity; type: biochemical
T1 construct: Whole rat brains were homogenized in a 10-fold volume of ice cooled 0.32 mM sucrose solution; from tissue; host or cells: whole rat brain homogenate
T1 sequence (P19643 1-520): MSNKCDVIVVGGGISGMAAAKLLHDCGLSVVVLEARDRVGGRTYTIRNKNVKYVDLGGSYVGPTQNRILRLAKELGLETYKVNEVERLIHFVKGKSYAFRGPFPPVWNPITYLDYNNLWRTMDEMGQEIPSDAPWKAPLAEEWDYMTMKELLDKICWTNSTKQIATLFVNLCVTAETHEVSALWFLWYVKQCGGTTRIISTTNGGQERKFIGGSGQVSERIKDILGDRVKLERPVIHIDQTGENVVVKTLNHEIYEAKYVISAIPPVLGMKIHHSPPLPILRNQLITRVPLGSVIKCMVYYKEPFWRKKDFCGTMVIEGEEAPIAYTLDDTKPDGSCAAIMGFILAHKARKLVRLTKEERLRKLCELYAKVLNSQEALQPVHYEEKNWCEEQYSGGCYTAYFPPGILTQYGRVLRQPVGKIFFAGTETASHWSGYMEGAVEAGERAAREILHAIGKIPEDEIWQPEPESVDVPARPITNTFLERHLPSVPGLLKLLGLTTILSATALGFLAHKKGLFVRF
Description: Monoamine oxidase B (MAO-B) inhibitory activity
Whole rat brains were homogenized in a 10-fold volume of ice cooled […] sucrose solution and diluted with a 10-fold volume of 10 mM phosphate buffer (pH 7.4). To 90 μl of this enzyme specimen, 1 μl of the test drug solution was added, followed by 10 minutes of incubation at 37° C. To the mixture, 10 μM of 14C-phenylethylamine was added, followed by 5 minutes of incubation at 37° C. After the reaction was stopped by the addition of 20 μl of 3M hydrochloric acid, 1 ml of water-saturated toluene-ethyl acetate (1:1) was added. The radioactivity of the metabolite migrated in the organic layer was measured by the liquid scintillation method.

Row | SMILES | 45Ca Uptake Inhibitory Activity (% inhibition at 10 μM) (45Ca2+ uptake) | IC50 [1]
1 | COc1ccc2c(c1)CCC1(CCCCN1CCCc1ccccc1)C2 (stereo not drawn) [Example 5-9, 3,4-Dihydro-6-methoxy-1'-(3-phenylpropyl)spiro[naphthalene-(1H),2'-piperidine] hydrochloride] | 92% | 
2 | COc1ccc2c(c1)CCC1(CCCCN1CCOc1ccccc1)C2 (stereo not drawn) [Example 5-10, 3,4-Dihydro-6-methoxy-1'-(2-phenoxyethyl)spiro[naphthalene-(1H),2'-piperidine] hydrochloride] | 88% | 
3 | COc1ccc2c(c1)CCC1(CCCCN1CCCC1CCN(Cc3ccccc3)CC1)C2.Cl.Cl (stereo not drawn) [Example 5-14, 3,4-Dihydro-6-methoxy-1'-[3-(1-phenylmethylpiperidin-4yl)propyl]spiro[naphthalene-2(1H),2'-piperidine] dihydrochloride] | 74% | 
4 | COc1cccc(N2CCN(CCN3CCCCC34CCc3cc(OC)ccc3C4)CC2)c1.Cl.Cl (stereo not drawn) [Example 7-1, 3,4-Dihydro-6-methoxy-1'-[2-(4-(3-methoxyphenyl)piperazine-1-yl)ethyl]spiro[naphthalene-2(1H),2'-piperidine] dihydrochloride] | 90% | 
5 | COc1ccc2c(c1)CCC1(CCCCN1CCN1CCN(c3ccccc3Cl)CC1)C2.Cl.Cl (stereo not drawn) [Example 7-3, 1'-[2-(4-(2-Chlorophenyl)piperazine-1-yl)ethyl]-3,4-dihydro-6-methoxyspiro[naphthalene-2(1H),2'-piperidine] dihydrochloride] | 95% | 
6 | COc1ccc2c(c1)CCC1(CCCCN1CCN1CCN(c3ccc(F)cc3)CC1)C2 (stereo not drawn) [Example 7-5, 1'-[2-(4-(4-Fluorophenyl)piperazine-1-yl)ethyl]-3,4-dihydro-6-methoxyspiro[naphthalene-2(1H),2'-piperidine]dihydrochloride] | 87% | 
7 | COc1ccc2c(c1)CCC1(CCCCN1CCN1CCN(c3cccc(C(F)(F)F)c3)CC1)C2.Cl.Cl (stereo not drawn) [Example 7-6, 1'-[2-(4-(3-Trifluoromethylphenyl)piperazine-1-yl)ethyl]-3,4-dihydro-6-methoxyspiro[naphthalene-2(1H),2'-piperidine] dihydrochloride] | 106% | 
8 | COc1ccc2c(c1)CCC1(CCCCN1CCN1CCC(c3ccccc3)CC1)C2.Cl.Cl (stereo not drawn) [Example 7-9, 3,4-Dihydro-6-methoxy-1'-[2-(4-phenylpiperidine-1-yl)ethyl]spiro[naphthalene-2(1H),2'-piperidine] dihydrochloride] | 109% | 
9 | CCCN1CCCCC12CCc1cc(OCc3ccsc3)ccc1C2 (stereo not drawn) [Example 9-45, 3,4-Dihydro-1'-propyl-6-(3-thienylmethoxy)spiro[naphthalene-2(1H),2'-piperidine] hydrochloride] |  | 60 nM
